Values quoted from earlier work in patent US20230066204A1 (OYE Therapeutics, Inc, priority 2019, published 2023).

Test system: rat
Details: administered intravenously

Cn1c(=O)c2c(ncn2C)n(C)c1=O [Caffeine]
accelerating emergence from anesthesia: effective in accelerating emergence from anesthesia
